Read-outs that look alike come from different tables or passages of the source.
How the values were obtained:
[1] = tested on: human ovarian cancer cell line SKOV-3; assay: SRB cytotoxicity assay, SKOV3; type: cell-based
Experimental: (§1) Compounds of the invention may be screened for cytotoxicity using conventional assays well known to those skilled in the art. For example, cytotoxicity of the compounds may be determined by the SRB assay as disclosed in Skehan et al., J. Natl. Cancer Inst. 82:1107-1112 (1990), which is incorporated herein by reference. In the SRB assay, the following cultured cells are trypsinized, counted and diluted to the following concentrations per 100 μl with growth medium: MCF-7, 5000; NCI/ADR-Res, 7500; NCI-H460, 5000; A549, 5000; Skov3, 7500; and SF-268, 7500. The cells are seeded at 100 μl/well in 96-well microtiter plates. Twenty-four hours later, 100 μl of a test epothilone compound of the invention (ranging in concentration from 1000 nM to 0.001 nM diluted in growth medium) is added to each well. After incubation, with the compound for a period of days, the cells are fixed with 100 μl of 10% trichloroacetic acid (“TCA”) at 4 degrees for 1 hour, and stained with 0.2% sulforhodamine B (SRB)/1% acetic acid, and the bound SRB is then extracted with 200 μl of 10 mM Tris base. The amount of bound dye is determined by OD 515 nm, which correlates to the total cellular protein contents. The data is analyzed using standard statistical methodologies (such as those available with the software sold as KALEIDA GRAPH® by Synergy Software of Reading, Pa.) and the IC50s are calculated.
(§2) Human breast carcinoma cell line MCF-7, multi-drug resistant breast carcinoma cell line NCI/ADR, were obtained from the National Cancer Institute. Human non-small cell lung cancer cell line A549 and human ovarian cancer cell line SKOV-3 were obtained from American Type Culture Collection (Manassas, Va.). All cell lines were maintained in RPMI-1640 medium (Gibco/BRL, Rockville, Md.) supplemented with 2 mM L-glutamine, 25 mM HEPES and 10% FBS (Hyclone, Logan, Utah). Cells were maintained in a humidified incubator at 37° C. in 5% CO2.
(§3) Tumor cells were seeded in 100 μl at 5000 (MCF-7), 7500 (NCI/ADR), 5000 (A549) and 7500 (SKOV3) cells per well in 96-well plates. Cells were allowed to adhere for 24 hours. Each compound ranging from 0.001 to 1000 nM in 100 μl was added to cells in duplicate wells. After 3 days, cells were fixed at 4° C. for 1 hour with 10% trichloroacetic acid and then stained with 0.2% sulforhodamine B (SRB)/1% acetic acid for 20 minutes at room temperature. The unbound dye was rinsed away with 1% acetic acid, and the bounded SRB was then extracted with 200 μl of 10 mM Tris base. The absorbance was measured at 515 nm using a 96-well microtiter plate reader (Spectra Max 250, Molecular Devices). The IC50 values were calculated using a KaleidaGraph program. The experiments were performed twice.

[2] = biological target: T1, CYP2C9 (Homo sapiens, UniProt P11712); assay: Cytochrome P450 inhibition, CYP2C9; type: in vitro ADME
T1 construct: purchased BD GenTest, Woburn, Mass
T1 sequence (P11712 whole entry): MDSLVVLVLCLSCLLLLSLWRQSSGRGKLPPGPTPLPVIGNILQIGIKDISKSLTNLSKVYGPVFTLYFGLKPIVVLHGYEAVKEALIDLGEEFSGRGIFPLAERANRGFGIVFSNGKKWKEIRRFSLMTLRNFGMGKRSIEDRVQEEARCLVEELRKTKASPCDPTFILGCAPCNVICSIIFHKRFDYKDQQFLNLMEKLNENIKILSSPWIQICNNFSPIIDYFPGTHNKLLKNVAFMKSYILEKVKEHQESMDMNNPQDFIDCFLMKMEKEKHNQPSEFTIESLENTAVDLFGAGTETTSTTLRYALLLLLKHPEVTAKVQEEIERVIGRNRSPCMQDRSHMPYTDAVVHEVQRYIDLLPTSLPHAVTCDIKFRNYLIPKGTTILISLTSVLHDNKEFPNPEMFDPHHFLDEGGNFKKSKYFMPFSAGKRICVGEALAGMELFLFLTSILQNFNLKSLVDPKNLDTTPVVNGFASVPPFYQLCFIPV

[3] = tested on: Human breast carcinoma cell line MCF-7; assay: SRB cytotoxicity assay, MCF-7; type: cell-based
Experimental: as §1, §2, §3

[4] = biological target: T2, CYP2C19 (Homo sapiens, UniProt P33261); assay: Cytochrome P450 inhibition, CYP2C19; type: in vitro ADME
T2 construct: purchased BD GenTest, Woburn, Mass
T2 sequence (P33261 whole entry): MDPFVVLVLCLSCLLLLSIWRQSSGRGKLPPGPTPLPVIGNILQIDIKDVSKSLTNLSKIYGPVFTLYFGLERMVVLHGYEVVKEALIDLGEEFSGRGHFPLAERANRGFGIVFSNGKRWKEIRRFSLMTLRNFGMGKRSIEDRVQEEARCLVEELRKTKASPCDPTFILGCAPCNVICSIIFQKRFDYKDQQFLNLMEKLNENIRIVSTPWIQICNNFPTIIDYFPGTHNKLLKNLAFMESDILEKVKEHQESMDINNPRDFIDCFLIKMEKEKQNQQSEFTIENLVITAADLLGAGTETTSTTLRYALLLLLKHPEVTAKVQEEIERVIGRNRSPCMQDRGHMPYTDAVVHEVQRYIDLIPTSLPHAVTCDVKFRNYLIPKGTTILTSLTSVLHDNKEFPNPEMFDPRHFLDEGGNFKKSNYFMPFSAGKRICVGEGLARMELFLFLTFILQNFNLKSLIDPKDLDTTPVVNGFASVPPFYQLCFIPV

[5] = tested on: Human non-small cell lung cancer cell line A549; assay: SRB cytotoxicity assay, A549; type: cell-based
Experimental: as §1, §2, §3

[6] = tested on: multi-drug resistant breast carcinoma cell line NCI/ADR; assay: SRB cytotoxicity assay, NCI/ADR; type: cell-based, human
Experimental: as §1, §2, §3

[7] = Half-life in human plasma; details: fresh human plasma
Experimental: (§4) Half-lives of compounds in fresh mouse and human plasma were determined by dissolving the compounds in DMSO and adding aliquots to samples of mouse or human plasma. At Time Zero, aliquotted 75 μl from each sample and added 150 μl of acetonitrile. Centrifuged the white precipitate at 13500 rpm for 3 minutes. Transferred all the clear supernatant into another microcentrifuge tube and repeated the centrifuging step (13500 rpm/3 min). Carefully pipetted 150 μl of the clear supernatant into labeled HPLC sample tubes and tried to avoid pipetting any protein pellets. The samples were analyzed by HPLC to measure remaining compound at each time point by comparison with authentic standards.

[8] = Half-life in mouse plasma
Experimental: as §4, with “Half-lives of compounds in fresh mouse and human plasma were determined by dissolving the compounds in DMSO and adding aliquots to samples of mouse or human plasma.” left out

[9] = biological target: T3, CYP3A4 (Homo sapiens, UniProt P08684); assay: Cytochrome P450 inhibition (BD GenTest kit, BFC substrate), CYP3A4; type: in vitro ADME
T3 construct: purchased BD GenTest, Woburn, Mass
T3 sequence (P08684 whole entry): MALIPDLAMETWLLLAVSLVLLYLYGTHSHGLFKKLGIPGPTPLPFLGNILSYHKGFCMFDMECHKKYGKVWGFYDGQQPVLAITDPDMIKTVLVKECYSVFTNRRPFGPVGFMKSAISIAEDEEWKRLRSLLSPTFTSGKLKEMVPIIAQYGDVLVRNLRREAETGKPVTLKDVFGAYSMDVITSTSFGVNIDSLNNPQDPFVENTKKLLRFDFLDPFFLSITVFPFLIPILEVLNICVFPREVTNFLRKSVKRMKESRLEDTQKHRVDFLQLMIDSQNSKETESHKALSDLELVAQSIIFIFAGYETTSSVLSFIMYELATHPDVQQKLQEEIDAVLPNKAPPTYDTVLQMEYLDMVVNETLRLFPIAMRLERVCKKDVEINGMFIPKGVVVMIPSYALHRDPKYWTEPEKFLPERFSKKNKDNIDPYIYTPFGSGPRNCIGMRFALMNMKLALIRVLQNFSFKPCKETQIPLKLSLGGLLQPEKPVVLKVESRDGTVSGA
From the text: Following the procedure of Examples 39 (when R=methyl) and 42 (when R=CF3), the additional compounds shown in Table 2 were made by replacing (2-(tert-butyldimethyl-silyloxy)-methylthiazol-4-yl)methyltri-n-butyl-phosphonium chloride with the corresponding phosphonium chloride. Cytotoxicity data (Table 2) was obtained as described in Example 48. Cytochrome P450 inhibition data (Table 3) was obtained using the initial rate method against BFC substrate.
Cytochrome P450 inhibition measurements were performed using a commercially-available kit (BD GenTest, Woburn, Mass.), using BFC as substrate against CYP3A4.

[10] = Plasma protein binding (ultrafiltration); type: in vitro ADME; details: mouse or human plasma (species not given), 37° C.
Experimental: Plasma protein binding studies were performed as follows. Compounds were dissolved in DMSO, then diluted into either fresh or thawed samples of mouse or human plasma and incubated at 37° C. Time points of 50 μL were mixed with 100 μl of acetonitrile and centrifuged at ˜14000 rpm for 3 minutes. A 100 μL aliquot was removed from the supernatant and set aside for analysis to indicate compound in the total fraction. The remaining supernatant was transferred onto a Microcon ultrafiltration device fitted with a YM10 membrane and centrifuged to separate protein-bound material. A 50 μL aliquot of the protein-free filtrate was mixed with 100 μL of acetonitrile, centrifuged at ˜14000 rpm for 3 minutes, then 100 μL of the supernatant was collected and analyzed to determine the amount of compound not protein bound. The amount of compound in the total sample and in the protein-free fraction were determined by HPLC analysis against authentic standards.

[11] = Compound solubility in phosphate-buffered saline; type: physicochemical; details: aqueous buffer, kinetic from dmso stock; 5 μL of 20 mg/mL DMSO stock in 95 μL phosphate-buffered saline, 0.45 micron filter, HPLC
Experimental: Compound solubility was determined as follows: 5 μL of stock solution (at 20 mg/mL in DMSO) was added to 95 μL of phosphate-buffered saline. After being vortexed for about 10 seconds, the solution/suspension was filtered through a 0.45 micron filter and the amount of analyte was quantitated by HPLC. Solubilities (mg/mL) determined were as follows: epothilone D, <0.06; trans-9,10-dehydroepothilone D, <0.06; 21-OH-26-F3-trans-9,10-dehydroepothilone D, 0.1; 21-amino-trans-9,10-dehydroepothilone D, >0.6; 21-amino-26-F3-trans-9,10-dehydroepothilone D, >0.6; 26-F3-trans-9,10-dehydroepothilone D, <0.06; 21-OH-trans-9,10-dehydroepothilone D, 0.1; KOSN 1635, <0.02; KOSN 1632, 0.12.

[12] = Table 2, as described in Example 48, read-out: IC50 (nM) Skov
[13] = Table 2, as described in Example 48, read-out: IC50 (nM) MCF-7
[14] = Table 2, as described in Example 48, read-out: IC50 (nM) A549
[15] = Table 2, as described in Example 48, read-out: IC50 (nM) NCI/ADR
[16] = Homo sapiens, SK-OV-3, 72 h, Table 1, 3 days, SRB, read-out: IC50 SKOV3
[17] = Homo sapiens, MCF7, 72 h, Table 1, 3 days, SRB, read-out: IC50 MCF-7
[18] = Homo sapiens, A549, 72 h, Table 1, 3 days, SRB, read-out: IC50 A549
[19] = Homo sapiens, NCI/ADR-RES, 72 h, Table 1, 3 days, SRB, read-out: IC50 NCI/ADR

SMILES | IC50 [1, 12] [nM] | IC50 [3, 13] [nM] | IC50 [5, 14] [nM] | IC50 [6, 15] [nM] | IC50 [1, 16] [nM] | IC50 [3, 17] [nM] | solubility [11] [µg/mL] | IC50 [5, 18] [nM] | IC50 [6, 19] [nM] | other results
C/C1=C/C[C@@H](/C(C)=C/c2cc(C)on2)OC(=O)C[C@H](O)C(C)(C)C(=O)[C@H](C)[C@@H](O)[C@@H](C)/C=C/C1 [KOSN-1724] | 5.3 | 2.5 | 5.3 | 6.1 |  |  |  |  |  | IC50 [2]: 12900 nM; IC50 [4]: 10900 nM
C/C1=C/C[C@@H](/C(C)=C/c2ccc(CO)cn2)OC(=O)C[C@H](O)C(C)(C)C(=O)[C@H](C)[C@@H](O)[C@@H](C)/C=C/C1 [KOSN-1703] | 4.5 | 0.61 | 2.4 | 7.1 |  |  |  |  |  | IC50 [2]: 4000 nM; IC50 [4]: 10200 nM
C/C1=C/C[C@@H](/C(C)=C/c2csc(C)n2)OC(=O)C[C@H](O)C(C)(C)C(=O)[C@H](C)[C@@H](O)[C@@H](C)CCC1 [Epothilone D, Desoxyepothilone B, reference compound] |  |  |  |  | 39 | 6.8 | < 60 | 25 | 23 | half-life [7]: > 24 h; half-life ([8]; fresh mouse plasma): 0.817 h; IC50 [9]: 2400 nM; percentage of compound protein bound [10]: 98.5%; IC50 ([2]; human): 9000 to 12000 nM; IC50 ([4]; human): 1600 to 3400 nM
C/C1=C/C[C@@H](/C(C)=C/c2c[nH]cn2)OC(=O)C[C@H](O)C(C)(C)C(=O)[C@H](C)[C@@H](O)[C@@H](C)/C=C/C1 [KOSN-1712] | 37 | 20 | 31 | 220 |  |  |  |  |  | 
C/C1=C/C[C@@H](/C(C)=C/c2csc(C)n2)OC(=O)C[C@H](O)C(C)(C)C(=O)[C@H](C)[C@@H](O)[C@@H](C)/C=C/C1 (relative stereo) [9,10-dehydroepothilone D, trans-9,10-dehydroepothilone D] |  |  |  |  | 6.2 | 2 | < 60 | 4.7 | 6.2 | half-life [7]: > 24 h; half-life ([8]; frozen mouse plasma): 0.783 h; IC50 [9]: 1600 nM; percentage of compound protein bound [10]: 96.6%; IC50 ([2]; human): 10800 nM; IC50 ([4]; human): 2000 nM
C/C(=C\c1csc(C)n1)[C@@H]1C/C=C(/C(F)(F)F)C/C=C/[C@H](C)[C@H](O)[C@@H](C)C(=O)C(C)(C)[C@@H](O)CC(=O)O1 (relative stereo) [26-trifluoro 9,10-dehydroepothilone D, 26-trifluoro-trans-9,10-dehydroepothilone D, reference compound] |  |  |  |  | 22 | 5.3 | < 60 | 11 | 33 | half-life [7]: > 24 h; half-life ([8]; fresh mouse plasma): 2.72 h; IC50 [9]: 2000 nM; percentage of compound protein bound [10]: 96.5%; IC50 ([2]; human): 14400 nM; IC50 ([4]; human): 3200 nM
C/C1=C/C[C@@H](/C(C)=C/c2cccnc2)OC(=O)C[C@H](O)C(C)(C)C(=O)[C@H](C)[C@@H](O)[C@@H](C)/C=C/C1 [KOSN-1690] | 39 | 35 | 38 | 110 |  |  |  |  |  | 
C/C1=C/C[C@@H](/C(C)=C/c2csc(CN3CCOCC3)n2)OC(=O)C[C@H](O)C(C)(C)C(=O)[C@H](C)[C@@H](O)[C@@H](C)/C=C/C1 [KOSN-1727] | 490 | 390 | 420 | 410 |  |  |  |  |  | 
COC(=O)c1ccc(/C=C(\C)[C@@H]2C/C=C(/C)C/C=C/[C@H](C)[C@H](O)[C@@H](C)C(=O)C(C)(C)[C@@H](O)CC(=O)O2)nc1 [KOSN-1765] | 220 | 44 | 350 | 360 |  |  |  |  |  | 
C/C(=C\c1csc(CN)n1)[C@@H]1C/C=C(/C(F)(F)F)C/C=C/[C@H](C)[C@H](O)[C@@H](C)C(=O)C(C)(C)[C@@H](O)CC(=O)O1 [21-amino-9,10-dehydro-26-trifluoroepothilone D] |  |  |  |  | 40 | 9.7 | > 600 | 35 | 330 | 
C/C1=C/C[C@@H](/C(C)=C/c2ccc3ccccc3n2)OC(=O)C[C@H](O)C(C)(C)C(=O)[C@H](C)[C@@H](O)[C@@H](C)/C=C/C1 [17-des(2-methyl-4-thiazolyl)-17-(2-quinolyl)-9,10-dehydropeothilone D] |  |  |  |  | 19 | 8.9 |  | 25 | 24 | 
COc1ccnc(/C=C(\C)[C@@H]2C/C=C(/C)C/C=C/[C@H](C)[C@H](O)[C@@H](C)C(=O)C(C)(C)[C@@H](O)CC(=O)O2)c1 [KOSN-1756] | 4 | 2.1 | 4 | 4.9 |  |  |  |  |  | IC50 [2]: 7100 nM; IC50 [4]: 1900 nM
C/C1=C/C[C@@H](/C(C)=C/n2nnc3ccccc32)OC(=O)C[C@H](O)C(C)(C)C(=O)[C@H](C)[C@@H](O)[C@@H](C)/C=C/C1 [KOSN-1674] | 50 | 34 | 42 | 180 |  |  |  |  |  | 

From patent publication US20040152708A1, “Trans-9,10-dehydroepothilone C and D, analogs thereof and methods of making the same” (priority 2002, published 2004)
